From PMC9011347, “Small-Molecule Inhibitors Targeting Lipolysis in Human Adipocytes” (Journal of the American Chemical Society, 2022)

What was measured:
human ATGL = target: T1, human ATGL (Homo sapiens, UniProt Q96AD5); parameters: method as in PMID 28327588; conditions: cited from earlier work
T1 construct: host or cells: Expi293 cells, crude lysate
T1 sequence (Q96AD5 1-504): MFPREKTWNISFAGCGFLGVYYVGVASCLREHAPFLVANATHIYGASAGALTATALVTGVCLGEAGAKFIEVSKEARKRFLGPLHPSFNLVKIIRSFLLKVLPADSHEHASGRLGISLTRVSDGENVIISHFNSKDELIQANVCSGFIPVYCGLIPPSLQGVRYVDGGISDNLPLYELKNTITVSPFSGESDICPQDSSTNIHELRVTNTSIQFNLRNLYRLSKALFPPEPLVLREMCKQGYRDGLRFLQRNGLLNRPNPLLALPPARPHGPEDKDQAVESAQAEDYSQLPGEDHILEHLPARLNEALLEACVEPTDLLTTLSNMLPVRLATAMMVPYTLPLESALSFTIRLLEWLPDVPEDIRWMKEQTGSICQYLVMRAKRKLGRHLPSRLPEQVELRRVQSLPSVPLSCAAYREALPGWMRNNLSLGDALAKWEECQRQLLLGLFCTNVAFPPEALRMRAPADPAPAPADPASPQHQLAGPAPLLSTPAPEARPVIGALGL

HepG2^control cells = assay: Seahorse cellular respiration (OCR); type: cell-based, human; conditions: NG-497 40 μM
Text: NG-497 could affect respiration by limiting the availability of FAs as an energy substrate or by off-target effects leading to mitochondrial dysfunction, which is a major mechanism of drug-induced toxicity.[47] To monitor on- and off-target effects of NG-497 on cellular respiration, we performed seahorse experiments using HepG2 cells endogenously expressing (HepG2^control) or lacking ATGL (HepG2^AKO). This method allows the measurement of basal respiration (BR), maximal respiration (MR), proton leak (PL), ATP production (ATPP), spare respiratory capacity (SRC), and nonmitochondrial oxygen consumption (NMOC) after successive addition of oligomycin (ATP-synthase inhibitor), carbonyl cyanide p-trifluoromethoxyphenylhydrazone (FCCP) (uncoupler), and antimycin/rotenone (electron transport chain inhibitors). The human hepatoma cell line HepG2 was selected as a model since it is frequently used to monitor drug-induced mitochondrial dysfunction.[48] Like most cancer cell lines, HepG2 cells rely on anaerobic glycolysis for ATP generation, implicating that inhibition of lipolysis has only minor effects on respiration.
(a) HepG2 cells were treated with NG-497 (40 μM) or DMSO as control and oxygen consumption rate (OCR) was determined in Seahorse growth medium supplemented with glucose (25 mM) using the SeaHorse XF96 extracellular flux analyzer. OCR was determined after subsequent addition of 1 μM Oligomycin (ATP-synthase inhibitor), 1 μM FCCP (uncoupler), and 1 μM antimycin/rotenone (electron transport chain inhibitors). (b) Statistical analysis of basal respiration (BR), maximal respiration (MR), proton leak (PL), ATP production (ATPP), spare respiratory capacity (SRC), and nonmitochondrial oxygen consumption (NMOC) of control and NG-497-treated cells. (c) Extracellular acidification rate (ECAR) and (d) OCR of HepG2 cells were determined in Seahorse growth medium supplemented with glucose (25 mM) or galactose (10 mM). (e) Determination of the ORC of HepG2 cells grown in medium supplemented with galactose (10 mM) and NG-497 (40 μM) or DMSO as control with (f) respective statistical analysis. (g) ATGL gene was inactivated in HepG2 cells using the CRISPR/Cas9 system. Growth of cells expressing (HepG2^control) or lacking functional ATGL (HepG2^AKO) was determined using a BioRad cell analyzer. ATGL expression was analyzed by Western blotting analysis using an anti-ATGL antibody and GAPDH as a loading control (inset). (h) Acylglycerol content of HepG2^control and HepG2^AKO cells was determined by a commercial kit (TG Infinity reagent, Thermo Fisher Scientific). (i) OCR of galactose-supplemented HepG2^AKO cells and (j) the respective statistical analysis. Data are presented as mean ± standard error of the mean (SEM). Statistical significance was determined via Student’s t test (*p < 0.05; **p < 0.01; ***p < 0.001) or ANOVA followed by Bonferroni post hoc test (^#p < 0.05; ^##p < 0.01; ^###p < 0.001). […]
Sanger sequencing. The resulting constructs were transfected into HepG2 cells using the Turbofect Reagent (#R0531, Thermo Fisher Scientific) according to the manufacturer’s instructions. Cells transfected with empty pSpCas9(BB)-2A-Puro V2.0 served as negative control. 24 h after transfection, puromycin was added at a concentration of 4 µg/ml to eliminate non-transfected cells.
48 h later, the remaining cells were singularized in 96-well plates by seeding 1 cell/well. After clonal expansion for three weeks, the resulting cell lines were screened for ATGL deletion by immunoblotting using an ATGL-specific antibody (#2138S, CST). gRNA_v1 construct was chosen for further analysis.
Determination of cellular acylglycerol content. Cells were harvested in buffer A, total lipids extracted with chloroform/methanol (2/1, v/v) for 1 h at RT on a top-over wheel, and phase separation was achieved by centrifugation at 2,000 x g for 10min at RT. The organic phase was collected, dried under a stream of nitrogen, and dissolved in 2% Triton X-100 by […]
sonication. […]

[1] = glucose medium, tendency, not significant

| SMILES | efficacy against human ATGL (human ATGL) | change of basal OCR (BR) (HepG2^control cells; galactose (10 mM) medium) | change of maximal respiration (MR) (HepG2^control cells; galactose (10 mM) medium) | change of spare respiratory capacity (SRC) (HepG2^control cells; galactose (10 mM) medium) | change of maximal respiration (MR) (HepG2^control cells; [1]) | change of spare respiratory capacity (SRC) (HepG2^control cells; [1]) | effects on respiration (OCR parameters) (HepG2^control cells; medium with glucose (25 mM)) |
| --- | --- | --- | --- | --- | --- | --- | --- |
| CN(C)C(=O)Nc1cccc(-c2ccc(N(C)C)cc2)c1 [Atglistatin, reference compound] | ineffective | – | – | – | – | – | – |
| CCOc1ccc(-c2cc(OC)cc(C(=O)OC(C)C)n2)cc1 [NG-497] | – | −15% | −17% | −20% | −11% | −18% | could not observe significant effects |
